In publication PMC10388305, “Synthesis and Evaluation of a Monomethyl Auristatin E—Integrin αvβ6 Binding Peptide–Drug Conjugate for Tumor Targeted Drug Delivery” (Journal of Medicinal Chemistry, 2023):
Entries after “also recorded” stand apart in the source; their conditions may differ.

How the values were obtained:
DX3puroβ6 (+) cells [1] = test: Caspase-3/7 activity assay (ApoTox-Glo), DX3puroβ6; format: cell-based; conditions: for Caspase-3/7 activity (in words): DX3puroβ6 (+), 0.625 nM (MMAE 1 nM, staurosporine 100 nM), 24, 48, 72 h; for Caspase-3/7 activity, times higher: DX3puroβ6, 0.625 nM, 24 h, untreated = 1, n = 4
Description: (§1) Caspase-3/7 activity was analyzed using an ApoTox-Glo Triplex Assay kit. Cells were seeded in a 96 well plate at the same density and using the same respective media as described for the WST-1 assay and incubated overnight (37 °C, 5% CO2). DX3puroβ6 and DX3puro cells were treated with 1 nM of MMAE (free, non-targeted drug) or 0.625 nM of the other compounds: NH2-2, [^natCu]2, NH2-PDC-1, or [^natCu]PDC-1. BxPC-3 and MIA PaCa-2 cells were treated with 10 nM of MMAE or 250 nM of the other compounds: NH2-2, [^natCu]2, NH2-PDC-1, or [^natCu]PDC-1. All cells were treated with 100 nM of staurosporine as a positive control.[24] Untreated cells (media) were used as a measure of endogenous caspase-3/7 activity (normalized to 1). Cells were treated (n = 4/cell line/compound/time) for 24, 48, or 72 h (37 °C, 5% CO2) prior to washing. After treatment, the media was removed, cells were washed, and Caspase-Glo 3/7 reagent was added, and incubated for 1 h at room temperature. Caspase-3/7 activity was analyzed by measuring luminescence with a Fluoroskan FL microplate reader according to the manufacturer’s protocol.

MIA PaCa-2 (−) cells [2] = test: Caspase-3/7 activity assay (ApoTox-Glo), MIA PaCa-2; format: cell-based; conditions: 250 nM (MMAE 10 nM, staurosporine 100 nM), 24, 48, 72 h
Description: as §1

DX3puro (−) cells [3] = test: Caspase-3/7 activity assay (ApoTox-Glo), DX3puro; format: cell-based; conditions: 0.625 nM (MMAE 1 nM, staurosporine 100 nM), 24, 48, 72 h
Description: as §1

BxPC-3 (+) cells [4] = test: Caspase-3/7 activity assay (ApoTox-Glo), BxPC-3; format: cell-based; conditions: for Caspase-3/7 activity (in words): 250 nM (MMAE 10 nM, staurosporine 100 nM), 24, 48, 72 h; for Caspase-3/7 activity, fold increase: 250 nM, 48 h, untreated = 1, n = 4
Description: as §1

DX3puroβ6 (+) cells [5] = test: WST-1 cell viability assay, DX3puroβ6; format: cell-based; conditions: for Fold more cytotoxic toward DX3puroβ6 (+) than DX3puro (−) cells: WST-1 EC50 ratio
Description: (§2) Peptides NH2-2 and [^natCu]2 were not toxic to any cells (Figure 3, gray and black, respectively).
(§3) Cell viability was measured after treatment with either NH2-2, [^natCu]2, MMAE (free, non-targeted drug), NH2-PDC-1, or [^natCu]PDC-1 in DX3puroβ6 (+) and DX3puro (−) cells at variable concentrations up to 5 nM, and in BxPC-3 (+) and MIA PaCa-2 (−) cells at variable concentrations up to 250 nM, or with MMAE at concentrations up to 10 nM. Cells were seeded in a 96 well plate at a density of 6000 cells/well for DX3puroβ6 and DX3puro, and at a density of 10,000 cells/well for BxPC-3 and MIA PaCa-2. DMEM media was used for all cells except for BxPC-3 (RPMI 1640 media). Cells (n = 6–8 wells/cell type/compound) were treated with different concentrations of NH2-2, [^natCu]2, MMAE, NH2-PDC-1, or [^natCu]PDC-1 dissolved in the respective media, as well as their respective media (no treatment) for 48 h (37 °C, 5% CO2), after which the media was removed; cells were washed twice with media (200 μL) and re-incubated in media (37 °C, 5% CO2) for 24 h. The media was then removed and the WST-1 reagent was added to each well, and the cells were incubated for 2 h at 37 °C. The 96 well plates were read at 450 nm by a Multiscan Ascent microplate reader. The percent cell viability was normalized to untreated cells (set as 100% viability) for each cell line.

MIA PaCa-2 (−) cells [6] = test: WST-1 cell viability assay, MIA PaCa-2; format: cell-based
Description: as §2, §3

BxPC-3 (+) cells [7] = test: WST-1 cell viability assay, BxPC-3; format: cell-based
Description: as §2, §3

DX3puro (−) cells [8] = test: WST-1 cell viability assay, DX3puro; format: cell-based; conditions: up to 5 nM
Description: as §2, §3

DX3puroβ6 (+) tumors = test: Therapy study, DX3puroβ6 (+) tumor-bearing mice; format: in vivo
From the text: (§4) Mice treated with [^natCu]PDC-1 had slower tumor growth compared to the groups receiving saline, non-drug bearing peptide [^natCu]2, or free, non-targeted MMAE (Figure 7). […] All mice in the groups treated with saline, non-drug bearing peptide [^natCu]2, or free, non-targeted MMAE had met an end point criterion (≥2 cm in any direction and/or tumor ulceration) by 56 days, 70 days, and 64 days from start of treatment, respectively, with all these groups having the same median survival of 37 days (Figure 7B).
Tumor xenografts were established by subcutaneous injection of either DX3puroβ6 or DX3puro cells (3 × 10^6 cells in 100 μL serum-free DMEM/animal) into the flank. The tumors were allowed to grow for 19 days before the start of treatment (day 0). Mice were treated with either (1) saline, (2) peptide ([^natCu]2), 6 mg/kg, 1.12 μmol/kg), (3) non-targeted drug (MMAE, 0.3 mg/kg, 0.42 μmol/kg), or (4) PDC ([^natCu]PDC-1, 6 mg/kg, 0.88 μmol/kg). Dosing of MMAE was 0.3 mg/kg as per maximum dose with no physiological response.[25] The [^natCu]PDC-1 treatment groups consisted of n = 10/tumor model, while all other groups (saline, [^natCu]2, and MMAE) consisted of n = 4/tumor model. All groups received four doses (on days 0, 3, 6, and 9) via i.v. tail vein injection of the above dose dissolved in saline (100 μL). The mean weights and standard deviation of each group was 25.9 ± 1.2 g (saline), 25.6 ± 1.5 g ([^natCu]2), 25.8 ± 2.5 g (MMAE), 24.9 ± 1.9 g ([^natCu]PDC-1, DX3puroβ6 tumors), and 25.7 ± 2.0 g ([^natCu]PDC-1, DX3puro tumors) at day 0. Tumor volumes and body weights (to assess possible systemic toxicity) were measured starting on day 0, and once a week thereafter until the end of the study. Tumor volume (V) was determined according to the equation V = (π/6) × L × W × H, where L is the longest axis, W is the axis perpendicular to L, and H is perpendicular to the plane of L and W. End point determination criteria were: any axis >2 cm, active ulceration, or compromised health of the mouse (>20% loss of body weight from the start of the study). All data are represented as the mean ± SD and are plotted beginning at day 0. Survival curves were determined by Kaplan–Meier method.

DX3puro (−) tumors = test: Therapy study, DX3puro (−) tumor-bearing mice; format: in vivo
From the text: as §4
Tumor xenografts were established by subcutaneous injection of either DX3puroβ6 or DX3puro cells (3 × 10^6 cells in 100 μL serum-free DMEM/animal) into the flank. The tumors were allowed to grow for 19 days before the start of treatment (day 0). […] Tumor volumes and body weights (to assess possible systemic toxicity) were measured starting on day 0, and once a week thereafter until the end of the study. Tumor volume (V) was determined according to the equation V = (π/6) × L × W × H, where L is the longest axis, W is the axis perpendicular to L, and H is perpendicular to the plane of L and W. End point determination criteria were: any axis >2 cm, active ulceration, or compromised health of the mouse (>20% loss of body weight from the start of the study). […] Survival curves were determined by Kaplan–Meier method.

[9] = 48 h treatment + 24 h media, mean ± SD

Row | Compound | Caspase-3/7 activity (in words) (DX3puroβ6 (+) cells [1]) | Caspase-3/7 activity (in words) (MIA PaCa-2 (−) cells [2]) | Caspase-3/7 activity (in words) (DX3puro (−) cells [3]) | Caspase-3/7 activity (in words) (BxPC-3 (+) cells [4]) | Fold more cytotoxic toward DX3puroβ6 (+) than DX3puro (−) cells (DX3puroβ6 (+) cells [5]) | Caspase-3/7 activity, times higher (DX3puroβ6 (+) cells [1]) | Caspase-3/7 activity, fold increase (BxPC-3 (+) cells [4]) | Cytotoxicity (in words), WST-1 (DX3puro (−) cells [8]) | other results
1 | CN[C@@H]1C[C@H]2O[C@@](C)([C@@H]1OC)n1c3ccccc3c3c4c(c5c6ccccc6n2c5c31)C(=O)NC4 [staurosporine, reference compound] | increased caspase-3/7 activity | increased caspase-3/7 activity | increased caspase-3/7 activity | increased caspase-3/7 activity |  |  |  |  | 
2 | CC[C@H](C)[C@@H]([C@@H](CC(=O)N1CCC[C@H]1[C@H](OC)[C@@H](C)C(=O)N[C@H](C)[C@@H](O)c1ccccc1)OC)N(C)C(=O)[C@@H](NC(=O)[C@H](C(C)C)N(C)C(=O)OCc1ccc(NC(=O)[C@H](CCCNC(N)=O)NC(=O)[C@@H](NC(=O)CCOCCOCCNC(=O)CCN2C(=O)CC(SC[C@H](N)C(=O)NCCOCCOCCOCCOCCOCCOCCOCCOCCOCCOCCOCCOCCOCCOCCOCCOCCOCCOCCOCCOCCOCCOCCOCCOCCOCCOCCOCCOCCC(=O)N[C@@H](CC(N)=O)C(=O)N[C@@H](C)C(=O)N[C@H](C(=O)N3CCC[C@H]3C(=O)N[C@@H](CC(N)=O)C(=O)N[C@@H](CC(C)C)C(=O)N[C@@H](CCCNC(=N)N)C(=O)NCC(=O)N[C@@H](CC(=O)O)C(=O)N[C@@H](CC(C)C)C(=O)N[C@@H](CCC(N)=O)C(=O)N[C@H](C(=O)N[C@@H](CC(C)C)C(=O)N[C@@H](C)C(=O)N[C@@H](CCC(N)=O)C(=O)N[C@@H](CCCNC(=N)N)C(=O)N[C@H](C(=O)N[C@@H](C)C(=O)N[C@@H](CCCNC(=N)N)C(=O)N[C@H](C(=O)NCCOCCOCCOCCOCCOCCOCCOCCOCCOCCOCCOCCOCCOCCOCCOCCOCCOCCOCCOCCOCCOCCOCCOCCOCCOCCOCCOCCOCCC(N)=O)[C@@H](C)O)C(C)C)C(C)C)C(C)C)C2=O)C(C)C)cc1)C(C)C (some centres unmarked) [NH2-PDC-1] |  | no significant increase | no observed change |  | > 31 fold | > 5 times | > 3 fold |  | EC50 (DX3puroβ6 (+) cells [5]; DX3puroβ6 (+), 48 h treatment + 24 h media, mean ± SD): 0.000159 ± 1.4e-05 µM; EC50 (MIA PaCa-2 (−) cells [6]; MIA PaCa-2 (−), 48 h treatment + 24 h media, up to 250 nM (MMAE up to 10 nM), mean ± SD): > 0.25 µM; EC50 (BxPC-3 (+) cells [7]; [9]): 0.222 ± 0.114 µM; EC50 (DX3puro (−) cells [8]; [9]): > 0.005 µM
3 | CC[C@H](C)[C@@H]([C@@H](CC(=O)N1CCC[C@H]1[C@H](OC)[C@@H](C)C(=O)N[C@H](C)[C@@H](O)c1ccccc1)OC)N(C)C(=O)[C@@H](NC(=O)[C@H](C(C)C)N(C)C(=O)OCc1ccc(NC(=O)[C@H](CCCNC(N)=O)NC(=O)[C@@H](NC(=O)CCOCCOCCNC(=O)CCN2C(=O)CC(SC[C@H](NC(=O)CN3CCN(CC(=O)O)CCN(CC(=O)O)CCN(CC(=O)O)CC3)C(=O)NCCOCCOCCOCCOCCOCCOCCOCCOCCOCCOCCOCCOCCOCCOCCOCCOCCOCCOCCOCCOCCOCCOCCOCCOCCOCCOCCOCCOCCC(=O)N[C@@H](CC(N)=O)C(=O)N[C@@H](C)C(=O)N[C@H](C(=O)N3CCC[C@H]3C(=O)N[C@@H](CC(N)=O)C(=O)N[C@@H](CC(C)C)C(=O)N[C@@H](CCCNC(=N)N)C(=O)NCC(=O)N[C@@H](CC(=O)O)C(=O)N[C@@H](CC(C)C)C(=O)N[C@@H](CCC(N)=O)C(=O)N[C@H](C(=O)N[C@@H](CC(C)C)C(=O)N[C@@H](C)C(=O)N[C@@H](CCC(N)=O)C(=O)N[C@@H](CCCNC(=N)N)C(=O)N[C@H](C(=O)N[C@@H](C)C(=O)N[C@@H](CCCNC(=N)N)C(=O)N[C@H](C(=O)NCCOCCOCCOCCOCCOCCOCCOCCOCCOCCOCCOCCOCCOCCOCCOCCOCCOCCOCCOCCOCCOCCOCCOCCOCCOCCOCCOCCOCCC(N)=O)[C@@H](C)O)C(C)C)C(C)C)C(C)C)C2=O)C(C)C)cc1)C(C)C (some centres unmarked) [[^natCu]PDC-1, metal not drawn] |  | slight increase | no observed change |  | > 86 fold | > 5 times | > 3 fold | no observable cytotoxic effects | Concentration required for noticeable cytotoxic effects (MIA PaCa-2 (−) cells [6]; MIA PaCa-2, WST-1): ≥ 0.25 µM; Median survival (DX3puroβ6 (+) tumors; DX3puroβ6 (+) tumors, 6 mg/kg i.v. on days 0, 3, 6, 9, n = 10): 77 days; Mean tumor volume, times smaller than all other treatment groups (saline, [natCu]2, MMAE) (DX3puroβ6 (+) tumors; day 37): > 4 times; Mean tumor volume, times smaller than equally treated DX3puro (−) tumors (DX3puroβ6 (+) tumors; day 37, P = 0.0099): > 2.75 times; Body weight / systemic toxicity (in words) (DX3puroβ6 (+) tumors; four doses of 6 mg/kg i.v., body weight weekly, all groups compared, 6 mg/kg): No significant differences; also recorded: did not cause adverse systemic side-effects; Median survival, fold longer than other treatment groups (DX3puroβ6 (+) tumors; vs saline, [natCu]2, MMAE (37 days)): > 2 fold; Median survival (DX3puro (−) tumors; 6 mg/kg i.v. on days 0, 3, 6, 9, n = 10): 49 days; Time at which all mice had reached an end point (DX3puro (−) tumors; from start of treatment): 95 days
4 | NH2-C-αvβ6-BP [NH2-2] | no effect on caspase-3/7 activity | no effect on caspase-3/7 activity | no effect on caspase-3/7 activity | no effect on caspase-3/7 activity |  |  |  | not toxic | Cytotoxicity (in words), WST-1 (DX3puroβ6 (+) cells [5]; DX3puroβ6 (+), up to 5 nM): not toxic; Cytotoxicity (in words), WST-1 (MIA PaCa-2 (−) cells [6]; MIA PaCa-2 (−), up to 250 nM): not toxic; Cytotoxicity (in words), WST-1 (BxPC-3 (+) cells [7]; up to 250 nM): not toxic
